Tests used:
Type in all cases: cell-based
Jurkat cells [1] = assay: Flow cytometry of live and heat-treated Jurkat cells stained in PBS or complete media
Jurkat cells [2] = assay: Flow cytometry of 50% live/50% dead Jurkat cell mixtures fixed with 4% formaldehyde; details: 25 μM dye, PBS or complete media, substantial majority of live cells
Jurkat cells [3] = assay: Flow cytometry of 50% live/50% dead Jurkat cell mixtures, fixed and permeabilized
untreated Jurkat cells = assay: Flow cytometry of untreated Jurkat cells in PBS or complete media; details: 25 μM, five minutes, PBS and complete media
Experimental: Populations of untreated Jurkat cells in either PBS or complete media were incubated with 25 μM Compound 2 for five minutes and analyzed by flow cytometry. Results are shown in FIGS. 4A-4B (PBS and complete media, respectively).

Jurkat cells [4] = system: Jurkat cells

N=c1ccc2c(-c3ccc(C(=O)NCCCCCNC(=O)CCCc4ccc(N(CCCl)CCCl)cc4)cc3C(=O)O)c3ccc(N)c(S(=O)(=O)O)c3oc-2c1S(=O)(=O)O [Compound 2]
variation in intensity of staining due to the presence of complete media (Jurkat cells [1]; 25 μM dye, PBS versus complete media): little to no variation in intensity of staining | separation of live and dead cells in histograms (Jurkat cells [1]; 25 μM dye, stained in PBS and in complete media (RPMI+10FBS), 488 nm excitation, 530/30 nm emission): clear separation of live and dead cells | histogram peaks for staining in media versus in PBS (FIGS. 1B, 1C) (Jurkat cells [1]; live and dead cell peaks, media and PBS): overlap | separation of live cells from dead cells (Jurkat cells [2]): two logs of separation | separation of live cells from dead cells (Jurkat cells [3]; fixed and permeabilized, 25 μM dye, PBS or complete media, substantial majority of live cells): two logs of separation | histogram peaks for staining in media versus in PBS (FIGS. 3A, 3B) (Jurkat cells [3]; fixed, permeabilized cells): mostly or partially overlap | strongly labeled peaks corresponding to dead cells (untreated Jurkat cells): 7-14 % of total cells | difference of unstained control from live cell peaks, peak to peak (Jurkat cells [4]): 1-1.5 logs | separation of dead cell peaks from the live cell peaks (Jurkat cells [4]): good separation | separation of dead cells from live cells, peak to peak (Jurkat cells [4]): over 2 logs | staining of live cells (versus unstained control) (Jurkat cells [4]): negligible

— US11768156B2, “Methods and compositions for assessing cell viability” (Life Technologies Corporation, priority 2017, dated 2023)
